Assay results from article PMC10746280, “Bacterial efflux pump modulators prevent bacterial growth in macrophages and under broth conditions that mimic the host environment” (mBio, 2023).

Experiments:
RAW 264.7 macrophages = experiment: SAFIRE macrophage assay: host toxicity (adherent macrophage count, morphology); format: cell-based
Procedure, shortened: (§1)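 RAW 264.7 macrophages infected with S. Typhimurium SL1344 sifB::gfp (MOI ~30), gentamicin 40 µg/mL, then compound from 2 h to 18 h post-infection. Confocal imaging with MitoTracker and DAPI; toxicity as adherent MitoTracker-positive macrophage count, bacterial load as GFP+ macrophage area.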

[1] = test system: S. Typhimurium SL1344 (sifB::gfp) in RAW 264.7 macrophages; experiment: SAFIRE macrophage assay: intracellular bacterial load (GFP signal within macrophages); format: cell-based, Salmonella enterica serotype Typhimurium; settings: for IC50: Salmonella enterica, TYPHIMURIUM, RAW264.7, read-out: SAFIRE IC50
Procedure, shortened: as §1

[2] = 5 uM, 'Toxic' given instead of a score
[3] = 25 uM, 'Toxic' given instead of a score
[4] = 5 uM compound, n=1, DMSO solvent control = 100
[5] = 25 uM compound, n=1, DMSO solvent control = 100
[6] = 5 uM compound, n=1, DMSO solvent control = 98, rifampicin 2 μg/mL = 65
[7] = 25 uM compound, n=1, DMSO solvent control = 98, rifampicin 2 μg/mL = 65

SMILES | 5 uM Avg Cell # Score (RAW 264.7 macrophages; 5 uM) | 25 uM Avg Cell # Score (RAW 264.7 macrophages; 25 uM) | 5 uM Avg Antibacterial Score [1, 2] | 25 uM Avg Antibacterial Score [1, 3] | 5 uM Avg Cell # Score (RAW 264.7 macrophages; [4]) | 25 uM Avg Cell # Score (RAW 264.7 macrophages; [5]) | 5 uM Avg Antibacterial Score [1, 6] | 25 uM Avg Antibacterial Score [1, 7] | IC50 [1] | toxicity to infected macrophages in SAFIRE (RAW 264.7 macrophages; 16 h after treatment)
Cc1ccc(Cl)c(OCC(O)CN2CCC(Nc3nccc(C(F)(F)F)n3)CC2)c1 (stereo not drawn) [CU148] | 123 | 39 | 48 | Toxic | – | – | – | – | – | –
OC(COc1cccc(C(F)(F)F)c1)CN1CCC(Nc2nccc(C(F)(F)F)n2)CC1 (stereo not drawn) [CU103] | 82 | 71 | 9 | Toxic | – | – | – | – | – | –
OC(COc1ccc(Cl)c(Cl)c1)CN1CCCN(c2nccc(C(F)(F)F)n2)CC1 (stereo not drawn) [CU055] | 77 | 99 | Toxic | Toxic | – | – | – | – | – | –
N[C@H]1CCN(C[C@H](O)COc2ccc(Cl)c(Cl)c2)C1 [CU238] | – | – | – | – | 126 | 102 | 34 | 12 | – | –
OC(COc1ccccc1Cl)CN1CCC(Nc2nccc(C(F)(F)F)n2)C1 (stereo not drawn) [CU084] | 96 | 46 | 93 | Toxic | – | – | – | – | – | –
OC(COc1cc(Cl)cc(Cl)c1)CN1CCCC1 (stereo not drawn) [CU248] | – | – | – | – | 115 | 108 | 93 | 48 | – | –
CN1CCC(N(C)CC(O)COc2ccc(Cl)c(Cl)c2)C1 (stereo not drawn) [CU175] | 108 | 95 | 65 | 22 | – | – | – | – | – | –
NC1CCN(CC(O)COc2ccccc2Cl)CC1 (stereo not drawn) [CU189] | 107 | 109 | 61 | 49 | – | – | – | – | – | –
OC(COc1ccc(Cl)c(Cl)c1)CN1CCC(Nc2nccc(C(F)(F)F)n2)C1 (stereo not drawn) [CU089] | 101 | 91 | 30 | Toxic | – | – | – | – | – | –
OC(COc1ccccc1Cl)CN1CCC(Nc2ncccn2)CC1 (stereo not drawn) [CU049] | 84 | 121 | 104 | 61 | – | – | – | – | – | –
OC(COc1ccc(Cl)c(Cl)c1)CN1CCC(NC2CC2)C1 (stereo not drawn) [CU028] | 85 | 134 | 88 | 41 | – | – | – | – | – | –
COc1ccc(OCC(O)CN2CCC(N)C2)cc1 (stereo not drawn) [CU152] | 116 | 142 | 103 | 91 | – | – | – | – | – | –
OC(COc1cc(Cl)cc(Cl)c1)CN1CCC(Nc2nccc(C(F)(F)F)n2)CC1 (stereo not drawn) [CU101] | 71 | 73 | 9 | Toxic | – | – | – | – | – | –
OC(COc1ccc(F)cc1)CN1CCC(Nc2ncccn2)CC1 (stereo not drawn) [CU045] | 86 | 109 | 101 | 99 | – | – | – | – | – | –
N[C@@H]1CCN(CC(O)COc2ccc(Cl)c(Cl)c2)C1 (stereo partly drawn) [CU193] | 100 | 98 | 28 | 14 | – | – | – | – | 11.5 nM | –
O=C(O)c1cn(C2CC2)c2cc(N3CCN(CC(O)COc4ccc(Cl)c(Cl)c4)CC3)c(F)cc2c1=O (stereo not drawn) [CU196] | 103 | 13 | 86 | Toxic | – | – | – | – | – | –
OC(COc1cccc(Cl)c1)CN1CCC(Nc2nccc(C(F)(F)F)n2)C1 (stereo not drawn) [CU085] | 92 | 33 | 47 | Toxic | – | – | – | – | – | –
NCC1CCN(CC(O)COc2ccc(Cl)c(Cl)c2)CC1 (stereo not drawn) [CU205] | 131 | 13 | 12 | Toxic | – | – | – | – | – | –
CC(=O)Nc1cccc(OCC(O)CN2CCC(Nc3nccc(C(F)(F)F)n3)C2)c1 (stereo not drawn) [CU100] | 80 | 96 | 105 | 110 | – | – | – | – | – | –
NC(=O)[C@H]1CC[C@@H](NCC(O)COc2ccc(Cl)c(Cl)c2)C1 (stereo partly drawn) [CU066] | 91 | 86 | 103 | 100 | – | – | – | – | – | –
Cc1noc(CN(C)CC(O)COc2ccc(Cl)c(Cl)c2)n1 (stereo not drawn) [CU131] | 88 | 80 | 101 | 86 | – | – | – | – | – | –
N[C@@H]1CCN(C[C@@H](O)COc2ccc(Cl)c(Cl)c2)C1 [CU239] | – | – | – | – | 129 | 104 | 25 | 8 | 13.5 nM | –

SMILES | 5 uM Avg Cell # Score (RAW 264.7 macrophages; 5 uM) | 25 uM Avg Cell # Score (RAW 264.7 macrophages; 25 uM) | 5 uM Avg Antibacterial Score [1, 2] | 25 uM Avg Antibacterial Score [1, 3] | 5 uM Avg Cell # Score (RAW 264.7 macrophages; [4]) | 25 uM Avg Cell # Score (RAW 264.7 macrophages; [5]) | 5 uM Avg Antibacterial Score [1, 6] | 25 uM Avg Antibacterial Score [1, 7] | IC50 [1] | toxicity to infected macrophages in SAFIRE (RAW 264.7 macrophages; 16 h after treatment)
NC1CCN(CC(O)COc2ccccc2)C1 (stereo not drawn) [CU151] | 128 | 147 | 108 | 91 | – | – | – | – | – | –
NCC1CCN(CC(O)COc2cc(Cl)cc(Cl)c2)C1 (stereo not drawn) [CU209] | 143 | 94 | 41 | 14 | – | – | – | – | – | –
OC(COc1ccc(Cl)cc1)CN1CCC(Nc2nccc(C(F)(F)F)n2)C1 (stereo not drawn) [CU086] | 89 | 27 | 71 | Toxic | – | – | – | – | – | –
COc1ccc(OCC(O)CN2CCC(Nc3nccc(C(F)(F)F)n3)CC2)cc1 (stereo not drawn) [CU036] | 54 | 120 | 102 | 24 | – | – | – | – | – | –
OC(COc1ccc(Cl)c(Cl)c1)CN1CCCNCC1 (stereo not drawn) [CU145] | 94 | 120 | 69 | 39 | – | – | – | – | – | –
O[C@@H](COc1ccc(Cl)c(Cl)c1)CN1CCC(Nc2nccc(C(F)(F)F)n2)CC1 [CU138] | 85 | 75 | 7 | Toxic | – | – | – | – | – | –
O=C(NC1CCN(CC(O)COc2ccc(Cl)c(Cl)c2)C1)c1ccccc1 (stereo not drawn) [CU068] | 80 | 49 | 20 | Toxic | – | – | – | – | – | –
NC1CCN(CC(COc2ccc(Cl)c(Cl)c2)OCc2ccccc2)CC1 (stereo not drawn) [CU241] | – | – | – | – | 110 | 6 | 30 | Toxic | – | –
NC1CCN(C[C@@H](O)COc2ccc(Cl)c(Cl)c2)C1 (stereo partly drawn) [CU161] | 138 | 113 | 55 | 33 | – | – | – | – | 81.4 nM | non-toxic
CC(C)(C)c1nc(NC(=N)N)sc1Br [EPM30] | 97 | 66 | 92 | Toxic | – | – | – | – | – | –
OC(COc1ccccc1)CN1CCC(Nc2ncccn2)CC1 (stereo not drawn) [CU043] | 69 | 107 | 106 | 81 | – | – | – | – | – | –
OC(COc1ccc(Cl)c(Cl)c1)CN1C2CCC1COC2 (stereo not drawn) [CU222] | 108 | 103 | 101 | 72 | – | – | – | – | – | –
OC(COc1ccc(Cl)c(Cl)c1)CN1CCN(Cc2cccc3ccccc23)CC1 (stereo not drawn) [CU212] | 19 | 18 | Toxic | Toxic | – | – | – | – | – | –
Cc1nnc(CN(C)CC(O)COc2ccc(Cl)c(Cl)c2)o1 (stereo not drawn) [CU130] | 100 | 73 | 98 | 85 | – | – | – | – | – | –
NC1CCN(CC(O)COc2ccccc2C(F)(F)F)CC1 (stereo not drawn) [CU233] | – | – | – | – | 128 | 104 | 47 | 34 | – | –
OC(COc1ccc(F)cc1F)CN1CCC(Nc2nccc(C(F)(F)F)n2)C1 (stereo not drawn) [CU098] | 89 | 88 | 92 | 12 | – | – | – | – | – | –
NC1CCN(C[C@H](O)COc2ccc(Cl)c(Cl)c2)C1 (stereo partly drawn) [CU160] | 137 | 129 | 51 | 35 | – | – | – | – | 2.6 nM | –
Cc1cc(CNCC(O)COc2ccc(Cl)c(Cl)c2)sc1C (stereo not drawn) [CU135] | 75 | 103 | 52 | Toxic | – | – | – | – | – | –
CC(C)(C)OC(=O)NC1CCN(CC(O)COc2ccc(Cl)c(Cl)c2)C1 (stereo not drawn) [CU031] | 88 | 140 | 102 | Toxic | – | – | – | – | – | –
COCCN1CCN(CC(O)COc2ccc(Cl)c(Cl)c2)CC1 (stereo not drawn) [CU211] | 120 | 115 | 100 | 50 | – | – | – | – | – | –
OC(COc1cc(Cl)cc(Cl)c1)CN1CCN(Cc2cccc3ccccc23)CC1 (stereo not drawn) [CU213] | 41 | 15 | Toxic | Toxic | – | – | – | – | – | –
